The experiment addresses T1, DrOTOP1 A388W (Danio rerio, UniProt Q7ZWK8, A388W).
T1 construct: A previously generated codon-optimized full-length DrOTOP1[8]; (UniProt: Q7ZWK8) construct; expressed in transfected cells; host or cells: HEK-293 (CRL-1573, ATCC)
T1 sequence (Q7ZWK8 1-586 A388W): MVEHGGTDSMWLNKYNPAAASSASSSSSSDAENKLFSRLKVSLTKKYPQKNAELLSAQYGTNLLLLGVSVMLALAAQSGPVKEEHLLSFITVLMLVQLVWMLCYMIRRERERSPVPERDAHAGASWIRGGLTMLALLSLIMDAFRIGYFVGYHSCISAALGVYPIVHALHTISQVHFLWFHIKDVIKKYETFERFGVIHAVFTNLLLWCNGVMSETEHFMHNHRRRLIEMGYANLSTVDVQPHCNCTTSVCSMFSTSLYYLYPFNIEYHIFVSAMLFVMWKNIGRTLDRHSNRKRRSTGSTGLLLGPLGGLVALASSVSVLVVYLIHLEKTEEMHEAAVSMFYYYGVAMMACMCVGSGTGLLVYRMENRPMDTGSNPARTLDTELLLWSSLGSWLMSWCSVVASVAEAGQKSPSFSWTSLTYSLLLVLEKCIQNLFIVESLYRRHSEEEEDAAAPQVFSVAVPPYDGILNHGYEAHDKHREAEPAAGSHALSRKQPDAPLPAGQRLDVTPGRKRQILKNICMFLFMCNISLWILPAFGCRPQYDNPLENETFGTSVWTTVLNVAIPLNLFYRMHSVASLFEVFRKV
Description: Whole-cell patch-clamp, inhibition of acid-evoked currents, DrOTOP1 A388W. It is filed as cell-based, zebrafish (Danio rerio). The note with it: single cells. The text has this: To functionally test the significance of the two binding sites identified by cryo-EM, we generated point mutations of DrOTOP1 using the binding poses and conformational changes observed in DrOTOP1_C2.2 to guide our mutations. As per the binding pose that best fits our cryo-EM density, C2.2 forms the following interactions in the outer site: hydrophobic packing against many non-polar residues W126, G130, M133, L134, F271, F570, and M573, and π-stacking with W532 (Fig. 5A). In addition, C2.2 could potentially form H-bonds with E267, if the sidechain is protonated or a water bridge is present, and with H574 if it moves closer (Fig. 5A). Likewise, C2.36 presents a heterocyclic nitrogen that can potentially form a H-bond with E267, similarly, provided a protonation or water bridge is present (Fig. 5B). In addition, C2.36 forms a T-shaped π-stacking interaction with H574, whose sidechain has rotated 90 degrees (compared to DrOTOP1_apo), presumably to accommodate the interaction (Fig. 5B). […]
Whole-cell patch-clamp recording was performed as previously described[6],[22],[25]. Recordings were made with an Axopatch 200B amplifier, digitized with a Digidata 1322a 16-bit data acquisition system, acquired with pClamp 8.2 and analyzed with Clampfit 10 (Molecular Devices). […]

SMILES strings stand for the structures. “And” between values parts separate entries of the source, which are not always exact repeats. Equal entries are not always repeated.

This note sets out measurements from publication PMC12549899 (Nature Communications, 2025).

A word on the inhibition: it is the drop in the measured response relative to a control, in per cent. With `O=C(/C(=N\O)c1ccccc1)c1ccccc1` [C11, benzil monoxime], the inhibition at 100 µM is 72.4%. Moreover, for the setting “100 µM”, the Inhibition of currents was 53.4353% and 72.6918% and 53.0458% and 57.2816% and 61.0959%.
